Data taken from US9259406B2, “Antitumor combinations containing antibodies recognizing specifically CD38 and melphalan” (SANOFI, priority 2008, dated 2016).
Where “and” joins values, the source holds several entries; their conditions need not be identical. Identical values can stand only once. Entries after “also recorded” stand apart in the source; their conditions may differ. Like-named read-outs stand apart in the source and are kept apart here.

Experiments:
[1] = system: human multiple myeloma LP1
[2] = system: human multiple myeloma RPMI-8226
murine CD38 = molecular target: T1, murine CD38 (Mus musculus, UniProt P56528); experiment: cross-reactivity of the antibody with murine CD38; format: binding
T1 sequence (P56528 1-304): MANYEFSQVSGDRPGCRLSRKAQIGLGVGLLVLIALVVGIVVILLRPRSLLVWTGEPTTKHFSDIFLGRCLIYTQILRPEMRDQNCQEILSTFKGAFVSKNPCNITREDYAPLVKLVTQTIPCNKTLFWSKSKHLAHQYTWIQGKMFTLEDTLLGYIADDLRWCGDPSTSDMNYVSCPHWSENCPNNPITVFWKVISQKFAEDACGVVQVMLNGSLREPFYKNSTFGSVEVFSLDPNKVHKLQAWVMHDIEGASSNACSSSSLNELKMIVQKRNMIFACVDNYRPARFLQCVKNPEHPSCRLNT

[3] = hu38SB19 IV 40.0 mg/kg/inj (total 160.0), days 12, 15, 18, 21
[4] = melphalan IV 3.8 mg/kg/inj (total 15.2), days 12, 15, 18, 21
[5] = melphalan IV 6.2 mg/kg/inj (total 24.8), days 12, 15, 18, 21
[6] = melphalan IV 10.0 mg/kg/inj (total 40.0), days 12, 15, 18, 21
[7] = melphalan IV 16.1 mg/kg/inj (total 48.3), treatments stopped on day 18
[8] = melphalan alone IV, total injected dose 40 mg/kg
[9] = melphalan IV 3.8 mg/kg/inj (total 15.2), days 16, 19, 22, 25
[10] = melphalan IV 6.2 mg/kg/inj (total 24.8), days 16, 19, 22, 25
[11] = melphalan IV 10.0 mg/kg/inj (total 40.0), days 16, 19, 22, 25

hu38SB19: humanized version of anti-CD38 monoclonal antibody 38SB19; heavy chain CDRs SEQ ID NOS: 13, 81, 15, light chain CDRs SEQ ID NOS: 16, 17, 18
T-C in days (1000 mg) [1, 3]: 1.1 days
log10 cell kill gross [1, 3]: 0.2
Comments ([1]; hu38SB19 IV 40.0 mg/kg/inj (total 160.0), days 12, 15, 18, 21, 40 mg/kg): not active; also recorded: HDT-inactive
tolerability ([1]; mouse, in vivo, 40 mg/kg): well tolerated
% BWC at nadir (day) ([1]; mouse, in vivo, iv, 40 mg/kg): +15.9%
tolerability ([2]; mouse, in vivo, 40 mg/kg): well tolerated
% BWC at nadir (day) ([2]; mouse, in vivo, iv, 40 mg/kg): +5.3%
Comments ([2]; mouse, in vivo, iv, 40 mg/kg): not active; also recorded: HDT-inactive
Drug death ([2]; mouse, in vivo, iv, 40 mg/kg): 0/5
T-C in days (1000 mg) ([2]; mouse, in vivo, iv, 40 mg/kg): 5.2 days
log10 cell kill ([2]; mouse, in vivo, iv, 40 mg/kg): 0.5
cross-reactivity with murine CD38 (murine CD38): lack of cross-reactivity

N[C@@H](Cc1ccc(N(CCCl)CCCl)cc1)C(=O)O [melphalan]
Comments [1, 4]: Moderately active
T-C in days (1000 mg) [1, 4]: 4.1 days
log10 cell kill gross [1, 4]: 0.8
% BWC at nadir (day) ([1]; melphalan IV 3.8 mg/kg/inj (total 15.2), days 12, 15, 18, 21, nadir day 22): +7.0%
Comments [1, 5]: Highly active
T-C in days (1000 mg) [1, 5]: 17.4 days
log10 cell kill gross [1, 5]: 3.5
% BWC at nadir (day) ([1]; melphalan IV 6.2 mg/kg/inj (total 24.8), days 12, 15, 18, 21, nadir day 24): −3.0%
T-C in days (1000 mg) [1, 6]: 46.5 days
log10 cell kill gross [1, 6]: 9.3
% BWC at nadir (day) ([1]; melphalan IV 10.0 mg/kg/inj (total 40.0), days 12, 15, 18, 21, nadir day 24): −14.6%
Comments [1, 7]: Toxic
drug-related deaths [1, 7]: 4/5
% BWC at nadir (day) ([1]; melphalan IV 16.1 mg/kg/inj (total 48.3), treatments stopped on day 18, nadir day 22): −33.6%
body weight loss at nadir ([1]; melphalan alone 16.1 mg/kg/injection, nadir on day 22): 33.6%
HNTD [1, 8]: 10 mg/kg/inj
Comments [2, 9]: Moderately active
Drug death [2, 9]: 0/5
T-C in days (1000 mg) [2, 9]: 8.5 days
log10 cell kill [2, 9]: 0.8
% BWC at nadir (day) ([2]; melphalan IV 3.8 mg/kg/inj (total 15.2), days 16, 19, 22, 25, nadir day 17): −1.2%
Comments [2, 10]: Active
Drug death [2, 10]: 0/5
T-C in days (1000 mg) [2, 10]: 9.5 days
log10 cell kill [2, 10]: 0.9
% BWC at nadir (day) ([2]; melphalan IV 6.2 mg/kg/inj (total 24.8), days 16, 19, 22, 25, nadir day 32): −3.5%
Drug death [2, 11]: 0/5
T-C in days (1000 mg) [2, 11]: 20.0 days
log10 cell kill [2, 11]: 1.9
Comments ([2]; melphalan IV 10.0 mg/kg/inj (total 40.0), days 16, 19, 22, 25, 10 mg/kg): HNTD, active
% BWC at nadir (day) ([2]; melphalan IV 10.0 mg/kg/inj (total 40.0), days 16, 19, 22, 25, nadir day 26): −12.2%
Comments ([2]; melphalan IV 16.1 mg/kg/inj (total 32.2), days 16, 19): Toxic
Drug death ([2]; melphalan IV 16.1 mg/kg/inj (total 32.2), days 16, 19, 16.1 mg/kg): 3 and 3/5
% BWC at nadir (day) ([2]; melphalan IV 16.1 mg/kg/inj (total 32.2), days 16, 19, nadir day 26): −33.4%
highest nontoxic dose (HNTD) [2, 8]: 10 mg/kg/inj
